In patent publication US20180280400A1, “TRANSDERMAL ADMINISTRATION SYSTEM FOR USE IN THE TREATMENT OF CHRONIC BRONCHOPULMONARY DISEASES” (ABC FARMACEUTICI S.P.A., priority 2013, published 2018):

Columns and labels:
[1] = system: human keratinocyte cell lines (HACAT); test: MTT cytotoxicity test, HACAT; assay type: cell-based
[2] = In vitro-ex vivo skin permeation across human epidermis, Franz diffusion cells; assay type: in vitro ADME; conditions: 4% w/v, up to 24 hours
Method: The Franz diffusion cells comprise two compartments, one containing the active ingredient (donor vehicle) and the other containing a receiving solution, separated by a slice of human epidermis. The vertical cells used in the actual experimental unit have a wider column than that in the original Franz type of diffusion cell, and the decanter shape was dispensed with. These have a diffusion area of 0.636 cm^2 and a receiving compartment of approximately 3.0 ml. The receiving volume in each cell is individually calibrated and equipped with a magnetic stirrer. Human epidermis was selected as the membrane for skin permeation studies. The skin used in the studies was obtained from the abdominal skin of a donor who underwent cosmetic surgery. The skin samples were prepared following an internal standard procedure. The full thickness of the skin was sealed in evacuated plastic bags and frozen at -20° C. within 6 hours of removal. Before the experiments the skin was thawed out at ambient temperature and excess fat was completely removed. […] The integrity of the skin was evaluated by measuring the impedance of each sample (Agilent LCR Meter 4263B). Subsequently the epidermis was mounted in the Franz diffusion cell, the receiving compartment of which was filled with saline solution (NaCl 0.9% w/v) filtered using a 0.22 μm filter (VWR, nylon membrane). […]

[3] = in vitro; conditions: dog, MDCK, pH 7.4
Method: (§1) MDCK cells were kept in Minimal Essential Medium Eagle (EMEM) containing 10% FBS, 2 nM of fresh L-glutamine and 2 nM of penicillin-streptomycin. The culture inserts were inseminated with 664000 cells per cm^2 (0.33 cm^2 per insert). The monolayers of MDCK were cultured for three days before use. The monolayers were washed with Hanks Balanced Salt Solution (HBSS+10 nM Hepes pH 7.4) transport medium; the electrical resistance of each monolayer was measured at 37° C. using a Millicell ERS-2 (Millipore). Background resistance values were subtracted from the resistance values of treated wells of monolayer. The resulting value was multiplied by the area of the membrane (0.33 cm^2) to calculate the transepithelial electrical resistance values (TEER (Ω cm^2)) for each monolayer. TEER values indicate the degree of confluence of the monolayer and the development of tight junctions. If the resistance was <200 Ω cm^2 the test was continued. MDCK monolayers having TEER values>200 Ω cm^2 were not used. The donor solutions in the transport test comprised 100 μM of test compound in the transport medium containing 100 nM of fluorescein isocyanate-dextran. The transport tests were performed using 0.250 ml of apical donor solution and 1 ml of basolateral acceptor solution (transport medium, pH 7.4). […] The monolayers were incubated with donor and acceptor solutions for 120 minutes at 37° C. The basolateral compartments were sampled after 120 minutes and analysed using LC-MS/MS, together with an aliquot of the donor solutions in the transport test (100 μM of the test compound) corresponding to (sample at time zero).
(§2) in which dQ/dt is the permeation velocity, CA is the initial concentration in the donor compartment and A is the surface area of the filter. […]
(§3) The integrated peak area for the LC-MS/MS chromatograms was used as the instrument response (INRE) for relative quantification of the test material.
(§4) The permeability of the test material was then evaluated by comparing the INRE for five replicates after two hours incubation, on the basis of the INRE response to the t0 samples.

[4] = system: human endothelial cells from the umbilical vein (HUVEC); test: MTT cytotoxicity test, HUVEC; assay type: cell-based
[5] = system: human fibroblast cell lines (HFF); test: MTT cytotoxicity test, HFF; assay type: cell-based
[6] = system: MDCK monolayers
Method: as §1, §2, §3, §4

[7] = with chemical potentiating agents, including oleic acid; cited from earlier work

| Compound | cytotoxicity (MTT test) [1] | skin permeability values (permeate over time) ([2]; aqueous solvent, FIG. 1) | skin permeability values (permeate over time) ([2]; triacetin solvent, FIG. 2) | Papp A→B at 120 min, 100 µM [3] | cytotoxicity (MTT test) [4] | cytotoxicity (MTT test) [5] | permeability value (in words) [6] | administered flow through human skin [7] |
| --- | --- | --- | --- | --- | --- | --- | --- | --- |
| Cn1c(=O)c2c(ncn2CC2OCCO2)n(C)c1=O [Doxofylline, 2-(7′-theophyllinemethyl)-1,3-dioxolane] | no cytotoxicity | substantially higher than those for theophylline | substantially higher than those for theophylline | 22.7 ×10⁻⁶ cm/s | no cytotoxicity | no cytotoxicity | high permeability value |  |
| COCCc1ccc(OCC(O)CNC(C)C)cc1 (stereo not drawn) [Metoprolol, metoprolol] |  |  |  | 6.52 ×10⁻⁶ cm/s |  |  |  |  |
| Cn1c(=O)c2[nH]cnc2n(C)c1=O [Theophylline, theophylline] |  |  |  |  |  |  |  | insufficient |
